In ChEMBL document CHEMBL1201862, “PubChem BioAssay data set” (2004):
Active and inactive are the calls of the source.

What was measured:
[1] = target: Intestinal-type alkaline phosphatase (Mus musculus, UniProt P24822); experiment: PubChem AID 488785; type: functional
[2] = target: T1, Alkaline phosphatase, tissue-nonspecific isozyme (Homo sapiens, UniProt P05186); experiment: TNAP enzyme inhibition by screening hits, dose response, selectivity assay for mouse IAP inhibitor project, biochemical, human TNAP, uHTS hits (AID 488906); type: functional
T1 sequence (P05186 whole entry): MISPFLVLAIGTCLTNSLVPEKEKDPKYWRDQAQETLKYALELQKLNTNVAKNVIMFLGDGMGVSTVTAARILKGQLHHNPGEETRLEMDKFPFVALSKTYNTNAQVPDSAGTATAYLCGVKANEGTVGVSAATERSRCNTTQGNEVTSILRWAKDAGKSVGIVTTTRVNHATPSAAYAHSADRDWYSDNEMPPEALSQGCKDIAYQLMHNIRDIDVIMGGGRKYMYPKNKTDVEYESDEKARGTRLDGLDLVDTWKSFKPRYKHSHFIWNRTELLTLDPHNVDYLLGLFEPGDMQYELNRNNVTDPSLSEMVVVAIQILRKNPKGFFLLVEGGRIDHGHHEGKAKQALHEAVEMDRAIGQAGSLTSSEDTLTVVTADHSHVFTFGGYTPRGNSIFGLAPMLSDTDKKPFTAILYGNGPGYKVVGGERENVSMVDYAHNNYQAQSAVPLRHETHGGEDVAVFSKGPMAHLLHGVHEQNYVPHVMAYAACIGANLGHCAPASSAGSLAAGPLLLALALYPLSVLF

[3] = target: Intestinal-type alkaline phosphatase (Homo sapiens, UniProt P09923); experiment: inhibition of human intestinal alkaline phosphatase – biochemical, dose response (AID 488876); type: functional
[4] = Luminescence Cell-Based Dose Retest to Confirm Inhibitors of Cancer Stem Cells. [Related pubchem assays (depositor defined):AID2717, AID2721]; type: functional; details: Homo sapiens
[5] = target: T2, Ubiquitin-conjugating enzyme E2 N (Homo sapiens, UniProt P61088); type: functional;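 further: Dose-response confirmation in a TR-FRET assay detecting UBC13-driven polyubiquitin chain formation, inhibition measured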
T2 sequence (P61088 whole entry): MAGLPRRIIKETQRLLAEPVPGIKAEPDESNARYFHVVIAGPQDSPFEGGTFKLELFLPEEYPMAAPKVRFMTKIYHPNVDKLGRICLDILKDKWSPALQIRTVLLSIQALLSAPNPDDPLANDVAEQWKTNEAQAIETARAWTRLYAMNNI

[6] = target: T3, Endoribonuclease toxin MazF (Escherichia coli K-12, UniProt P0AE70); experiment: MazF toxin RNase activators, dose response, biochemical, fluorescence, single-stranded RNA substrate, uHTS hits (AID 588481); type: functional
T3 sequence (P0AE70 whole entry): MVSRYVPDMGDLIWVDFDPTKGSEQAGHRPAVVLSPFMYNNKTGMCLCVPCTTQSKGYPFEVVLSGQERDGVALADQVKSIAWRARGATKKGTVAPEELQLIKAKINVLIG

[7] = target: T3, Endoribonuclease toxin MazF; experiment: fluorescent RNA oligo signal without MazF, dose response, counter-screen for MazEF activator project, biochemical, fluorescence, single-stranded RNase substrate (AID 588502); type: functional
[8] = A549 cell cytotoxicity, dose response, cytotoxicity control, plate reader, cherry-pick, antagonist series (AID 743412); type: functional, cell-based
[9] = HepG2 cell cytotoxicity, dose response, cytotoxicity control, plate reader, cherry-pick, antagonist series (AID 743416); type: functional, cell-based
[10] = LGR2 antagonists, dose response, cell-based, HEK293, CRE-luciferase reporter, cherry pick, set 2 (AID 743343); type: functional;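 further: transfected cells were stimulated with diluted bursicon conditioned medium after compound addition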
[11] = MC4R antagonists, dose response, counter-screen for LGR2 antagonist project, cell-based, plate reader, cherry pick (AID 743444); type: functional;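 further: transfected HEK 293 cells stimulated with alpha-MSH peptide; potency of inhibitors of the alpha-MSH evoked signal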
[12] = HEK293 cell cytotoxicity, dose response, cytotoxicity control, plate reader, cherry-picked samples (AID 743446); type: functional, cell-based
[13] = target: T4, Lysine-specific demethylase 4C (Homo sapiens, UniProt Q9H3R0); experiment: GASC-1 (JMJD2C) histone demethylase inhibitors, dose response, biochemical, DELFIA europium, cherry-picked samples (AID 488835); type: functional
T4 sequence (Q9H3R0 whole entry): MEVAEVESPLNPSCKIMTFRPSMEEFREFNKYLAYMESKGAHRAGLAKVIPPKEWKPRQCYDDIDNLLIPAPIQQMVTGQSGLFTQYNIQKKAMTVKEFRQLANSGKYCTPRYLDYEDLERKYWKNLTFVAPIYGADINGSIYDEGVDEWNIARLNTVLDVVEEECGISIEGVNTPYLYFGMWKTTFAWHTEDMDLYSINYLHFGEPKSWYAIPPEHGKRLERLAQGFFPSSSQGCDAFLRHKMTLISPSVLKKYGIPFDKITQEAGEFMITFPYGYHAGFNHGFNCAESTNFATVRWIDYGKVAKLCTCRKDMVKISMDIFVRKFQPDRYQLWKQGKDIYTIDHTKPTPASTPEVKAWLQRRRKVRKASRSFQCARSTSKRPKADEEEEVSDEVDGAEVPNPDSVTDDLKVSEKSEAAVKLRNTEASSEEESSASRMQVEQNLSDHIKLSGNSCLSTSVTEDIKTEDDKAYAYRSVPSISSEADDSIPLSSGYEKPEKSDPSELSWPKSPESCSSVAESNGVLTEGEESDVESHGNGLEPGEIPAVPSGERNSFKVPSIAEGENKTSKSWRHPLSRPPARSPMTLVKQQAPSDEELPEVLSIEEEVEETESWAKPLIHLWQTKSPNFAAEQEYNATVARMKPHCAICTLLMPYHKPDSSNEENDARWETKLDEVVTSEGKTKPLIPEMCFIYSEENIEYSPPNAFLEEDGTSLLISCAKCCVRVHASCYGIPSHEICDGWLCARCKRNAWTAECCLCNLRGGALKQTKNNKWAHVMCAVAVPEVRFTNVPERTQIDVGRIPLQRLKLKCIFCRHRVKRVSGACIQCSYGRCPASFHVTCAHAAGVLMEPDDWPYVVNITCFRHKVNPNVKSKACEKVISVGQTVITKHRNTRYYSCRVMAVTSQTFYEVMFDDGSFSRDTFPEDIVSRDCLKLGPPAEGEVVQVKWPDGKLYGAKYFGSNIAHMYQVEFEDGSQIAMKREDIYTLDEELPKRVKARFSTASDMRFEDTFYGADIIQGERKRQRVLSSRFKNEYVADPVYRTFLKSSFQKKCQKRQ

[14] = target: Glyceraldehyde-3-phosphate dehydrogenase (Homo sapiens, UniProt P04406)
[15] = target: T1, Alkaline phosphatase, tissue-nonspecific isozyme; experiment: human TNAP enzyme inhibitors, SAR follow-up, biochemical, luminescent, dose response (AID 1056)
[16] = inhibitors of intracellular T. cruzi replication, confirmation, NIH3T3 host cells, beta-gal luminescence (AID 2044); type: functional, cell-based;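 further: intracellular parasites grown in NIH/3T3 mouse fibroblasts as host cells; luminescent beta-galactosidase reporter signal from transgenic T. cruzi replicating inside host cells; inhibitors lower the luminescence signal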
[17] = cytotoxicity toward NIH3T3 fibroblasts, dose response, counter-screen, cell-based, ATP luminescence, mouse fibroblasts (AID 2010); type: functional;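 further: cells exposed to compound for about 90 hours before reading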
[18] = cytotoxicity in HMLE control line with eGFP shRNA, dose response, counter-screen for HMLE_sh_ECad selective toxicity project, cell-based, HMLE_sh_eGFP, luminescence (AID 463074); type: functional, Homo sapiens;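 further: HMLE human mammary epithelial cells expressing control shRNA against eGFP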
H9c2 = experiment: cells; type: functional, cell-based; details: Rattus norvegicus, H9c2, Myocardium;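 further: confirmatory concentration-response retest of ultra-high-throughput screening hits for modulation of myocardial damage; cell death induced by hydrogen peroxide oxidative stress; compound pretreatment for 60 min then peroxide exposure for 2 h; potency is for protecting the cells against peroxide damage rather than for killing them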
SUMO E1/E2 = SUMO E1/E2 (Homo sapiens, UniProt P63279+Q9UBE0+Q9UBT2); experiment: SAR analysis of SUMOylation using HTRF in an in-Vitro dose response assay. [Related pubchem assays (depositor defined):AID2006, AID2011, AID2018, AID2069, AID2658]; type: functional
Hexokinase HKDC1 = target: T5, Hexokinase HKDC1 (Homo sapiens, UniProt Q2TB90); experiment: HKDC1 hexokinase activators, dose response, biochemical, W721R variant (AID 504730); type: functional
T5 sequence (Q2TB90 whole entry): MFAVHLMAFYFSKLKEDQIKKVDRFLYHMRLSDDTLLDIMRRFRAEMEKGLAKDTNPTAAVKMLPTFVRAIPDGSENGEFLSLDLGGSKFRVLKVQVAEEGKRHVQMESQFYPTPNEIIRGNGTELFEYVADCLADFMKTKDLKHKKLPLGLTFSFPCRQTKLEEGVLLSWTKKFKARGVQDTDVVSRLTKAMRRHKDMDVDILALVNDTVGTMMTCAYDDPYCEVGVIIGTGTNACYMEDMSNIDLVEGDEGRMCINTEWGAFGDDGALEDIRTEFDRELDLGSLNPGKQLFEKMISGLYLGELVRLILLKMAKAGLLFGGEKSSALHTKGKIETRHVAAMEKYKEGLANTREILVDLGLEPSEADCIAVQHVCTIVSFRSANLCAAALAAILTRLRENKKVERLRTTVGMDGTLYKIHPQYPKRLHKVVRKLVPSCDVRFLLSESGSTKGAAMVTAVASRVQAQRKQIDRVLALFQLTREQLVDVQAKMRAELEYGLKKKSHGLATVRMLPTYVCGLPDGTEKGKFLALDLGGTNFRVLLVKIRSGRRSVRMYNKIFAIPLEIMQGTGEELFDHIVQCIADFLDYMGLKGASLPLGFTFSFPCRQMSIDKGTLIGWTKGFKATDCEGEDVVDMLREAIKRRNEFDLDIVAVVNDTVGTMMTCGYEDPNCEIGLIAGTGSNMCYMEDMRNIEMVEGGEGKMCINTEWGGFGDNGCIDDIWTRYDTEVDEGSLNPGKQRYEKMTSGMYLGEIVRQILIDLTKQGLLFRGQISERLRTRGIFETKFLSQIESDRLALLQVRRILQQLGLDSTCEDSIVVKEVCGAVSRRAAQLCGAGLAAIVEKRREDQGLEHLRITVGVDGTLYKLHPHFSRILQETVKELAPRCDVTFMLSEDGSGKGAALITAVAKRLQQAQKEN

Nonstructural protein 1 = Nonstructural protein 1 (Influenza A virus, UniProt Q194T2); type: functional, Influenza A virus (A/California/07/2009(H1N1))
Hexokinase-1 = target: T6, Hexokinase-1 (Homo sapiens, UniProt P19367); experiment: hexokinase 1 activators, dose response, selectivity assay for HKDC1 activator project, biochemical (AID 504762); type: functional
T6 sequence (P19367 whole entry): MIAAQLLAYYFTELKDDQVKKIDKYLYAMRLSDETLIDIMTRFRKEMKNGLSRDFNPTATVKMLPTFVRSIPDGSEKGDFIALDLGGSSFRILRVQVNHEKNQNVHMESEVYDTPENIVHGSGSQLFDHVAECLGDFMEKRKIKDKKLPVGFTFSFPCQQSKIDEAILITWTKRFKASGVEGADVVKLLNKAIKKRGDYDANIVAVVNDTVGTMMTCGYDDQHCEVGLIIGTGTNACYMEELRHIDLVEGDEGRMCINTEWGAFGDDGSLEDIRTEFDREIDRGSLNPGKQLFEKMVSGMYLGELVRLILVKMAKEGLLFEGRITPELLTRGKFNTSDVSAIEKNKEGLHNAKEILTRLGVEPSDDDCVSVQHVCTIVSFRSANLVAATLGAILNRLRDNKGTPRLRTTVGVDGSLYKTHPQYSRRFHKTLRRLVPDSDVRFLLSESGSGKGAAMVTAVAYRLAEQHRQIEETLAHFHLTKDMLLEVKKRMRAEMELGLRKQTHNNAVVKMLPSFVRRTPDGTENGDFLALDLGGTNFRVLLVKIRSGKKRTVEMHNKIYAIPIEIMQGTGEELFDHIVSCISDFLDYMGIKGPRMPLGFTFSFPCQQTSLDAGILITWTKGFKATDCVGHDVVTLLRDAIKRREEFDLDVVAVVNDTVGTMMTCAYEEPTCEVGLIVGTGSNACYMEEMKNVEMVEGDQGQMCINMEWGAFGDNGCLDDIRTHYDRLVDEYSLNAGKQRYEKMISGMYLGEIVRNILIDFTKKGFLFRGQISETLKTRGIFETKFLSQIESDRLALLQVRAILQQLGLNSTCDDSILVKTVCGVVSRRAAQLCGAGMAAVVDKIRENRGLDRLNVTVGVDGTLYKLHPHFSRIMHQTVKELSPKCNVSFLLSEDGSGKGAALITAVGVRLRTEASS

[19] = target: Heat shock protein HSP 90-alpha (Homo sapiens, UniProt P07900); type: functional, organism-based

Chain of Glyceraldehyde-3-phosphate dehydrogenase (P04406 whole entry): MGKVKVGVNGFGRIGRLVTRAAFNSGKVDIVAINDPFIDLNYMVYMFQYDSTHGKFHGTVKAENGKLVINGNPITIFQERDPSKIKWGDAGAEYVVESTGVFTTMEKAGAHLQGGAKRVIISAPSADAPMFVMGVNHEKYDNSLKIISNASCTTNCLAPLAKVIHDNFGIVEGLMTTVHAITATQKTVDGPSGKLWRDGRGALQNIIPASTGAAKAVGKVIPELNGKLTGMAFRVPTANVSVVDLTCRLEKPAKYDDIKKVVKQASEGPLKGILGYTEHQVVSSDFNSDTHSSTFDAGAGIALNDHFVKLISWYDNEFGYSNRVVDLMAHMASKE
Chain of Intestinal-type alkaline phosphatase (Mus musculus, UniProt P24822) (P24822 whole entry): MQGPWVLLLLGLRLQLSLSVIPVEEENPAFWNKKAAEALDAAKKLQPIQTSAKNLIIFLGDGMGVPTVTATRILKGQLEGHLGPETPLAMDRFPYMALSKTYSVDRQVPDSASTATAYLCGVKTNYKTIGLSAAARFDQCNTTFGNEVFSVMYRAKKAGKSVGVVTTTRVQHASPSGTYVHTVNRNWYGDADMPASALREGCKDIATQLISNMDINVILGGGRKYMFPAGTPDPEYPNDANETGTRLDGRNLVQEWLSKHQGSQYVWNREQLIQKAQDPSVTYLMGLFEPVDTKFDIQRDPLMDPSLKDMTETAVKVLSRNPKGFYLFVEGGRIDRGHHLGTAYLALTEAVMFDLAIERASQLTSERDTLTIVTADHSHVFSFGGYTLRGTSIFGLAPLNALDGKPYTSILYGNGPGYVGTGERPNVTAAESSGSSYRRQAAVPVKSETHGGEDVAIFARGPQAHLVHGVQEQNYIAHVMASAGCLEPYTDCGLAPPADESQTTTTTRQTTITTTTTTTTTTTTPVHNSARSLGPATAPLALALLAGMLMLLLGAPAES
Chain of SUMO E1/E2 (Q9UBE0 whole entry): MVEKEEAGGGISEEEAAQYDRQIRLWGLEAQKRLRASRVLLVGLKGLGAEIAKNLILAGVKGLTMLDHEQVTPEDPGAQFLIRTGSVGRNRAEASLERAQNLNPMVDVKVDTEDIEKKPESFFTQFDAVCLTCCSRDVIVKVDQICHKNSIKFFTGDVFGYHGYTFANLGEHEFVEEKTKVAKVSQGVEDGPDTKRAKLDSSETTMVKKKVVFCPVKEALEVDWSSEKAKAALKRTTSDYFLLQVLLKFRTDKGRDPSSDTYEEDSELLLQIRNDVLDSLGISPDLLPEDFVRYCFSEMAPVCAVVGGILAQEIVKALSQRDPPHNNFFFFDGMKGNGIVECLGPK
Chain of SUMO E1/E2 (Q9UBT2 whole entry): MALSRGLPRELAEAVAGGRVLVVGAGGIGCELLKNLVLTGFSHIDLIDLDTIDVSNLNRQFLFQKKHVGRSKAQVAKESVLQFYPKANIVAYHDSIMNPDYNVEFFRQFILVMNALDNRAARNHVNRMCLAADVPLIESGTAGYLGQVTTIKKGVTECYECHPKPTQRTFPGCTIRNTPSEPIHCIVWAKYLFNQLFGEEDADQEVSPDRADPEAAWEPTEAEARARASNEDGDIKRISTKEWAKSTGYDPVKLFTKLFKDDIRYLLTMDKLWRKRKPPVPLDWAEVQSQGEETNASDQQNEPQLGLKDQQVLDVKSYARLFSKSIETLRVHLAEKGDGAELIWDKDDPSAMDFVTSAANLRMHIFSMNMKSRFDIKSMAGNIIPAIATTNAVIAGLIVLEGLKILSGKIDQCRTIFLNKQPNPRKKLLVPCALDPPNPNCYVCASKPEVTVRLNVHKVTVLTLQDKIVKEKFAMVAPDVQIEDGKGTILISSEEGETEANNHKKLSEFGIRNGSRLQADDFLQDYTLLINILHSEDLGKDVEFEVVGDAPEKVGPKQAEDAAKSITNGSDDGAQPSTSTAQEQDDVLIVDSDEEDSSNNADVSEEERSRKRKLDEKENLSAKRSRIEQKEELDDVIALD
Chain of SUMO E1/E2 (P63279 whole entry): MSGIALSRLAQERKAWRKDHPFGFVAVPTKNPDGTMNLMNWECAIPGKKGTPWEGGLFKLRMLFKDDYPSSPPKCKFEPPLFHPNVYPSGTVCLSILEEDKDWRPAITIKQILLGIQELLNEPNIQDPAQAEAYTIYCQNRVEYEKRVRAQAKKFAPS
Chain of Intestinal-type alkaline phosphatase (Homo sapiens, UniProt P09923) (P09923 whole entry): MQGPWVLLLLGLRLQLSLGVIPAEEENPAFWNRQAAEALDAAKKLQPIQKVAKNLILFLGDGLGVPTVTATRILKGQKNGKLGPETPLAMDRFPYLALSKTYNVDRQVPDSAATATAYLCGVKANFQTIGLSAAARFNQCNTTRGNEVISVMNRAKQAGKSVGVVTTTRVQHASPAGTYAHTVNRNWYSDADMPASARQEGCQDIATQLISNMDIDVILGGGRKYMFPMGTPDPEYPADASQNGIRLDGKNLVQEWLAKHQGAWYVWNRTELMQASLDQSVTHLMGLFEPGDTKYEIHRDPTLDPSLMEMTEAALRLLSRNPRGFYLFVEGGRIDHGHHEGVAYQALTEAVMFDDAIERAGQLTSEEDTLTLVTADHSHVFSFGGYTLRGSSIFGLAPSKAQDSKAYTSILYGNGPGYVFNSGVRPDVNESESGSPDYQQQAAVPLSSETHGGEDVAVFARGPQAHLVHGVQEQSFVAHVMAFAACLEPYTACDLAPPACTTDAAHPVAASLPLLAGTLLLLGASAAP
Chain of Nonstructural protein 1 (Q194T2 whole entry): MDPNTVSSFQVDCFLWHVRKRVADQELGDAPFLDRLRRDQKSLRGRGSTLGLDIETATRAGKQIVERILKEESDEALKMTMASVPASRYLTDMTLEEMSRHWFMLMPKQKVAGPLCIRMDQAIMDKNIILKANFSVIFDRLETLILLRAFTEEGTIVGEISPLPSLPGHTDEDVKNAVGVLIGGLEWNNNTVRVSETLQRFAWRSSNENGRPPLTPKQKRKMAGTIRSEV

Cc1ccc(NC(=S)NCc2ccccc2)cc1S(=O)(=O)N1CCCCC1
IC50 [1]: 1.4 µM (active)
IC50 [2]: > 100 µM (inactive)
IC50 [3]: > 100 µM (inactive)

O=C(Nc1ccc(Cl)c(C(F)(F)F)c1)NC1CC2CCCC(C1)N2Cc1ccccc1 (configuration not stated)
AC50 [4]: 6.55 µM (active)
IC50 [5]: > 20 µM (inactive)
IC50 [1]: 11.2 µM (active)
IC50 [2]: > 100 µM (inactive)
IC50 [3]: > 100 µM (inactive)
EC50 [6]: > 99 µM (inactive)
EC50 [7]: > 99 µM (inactive)
AC50 [8]: 11.4 µM (active)
AC50 [9]: 12.6 µM (active)
AC50 [10]: 39 µM (active)
AC50 [11]: 33.5 µM (active)
AC50 [12]: 29.6 µM (active)

CN1C(=O)C(=Cc2ccc(N3CCCCCC3)cc2)C(=O)N(C)C1=O
AC50 [13]: 13.1 µM (active)

CCOc1ccc(OCC)c(S(=O)(=O)Nc2cccnc2)c1
IC50 [14]: > 100 µM (not active)
IC50 [15]: 4.44 µM (active)

COc1ccc(C(=O)CCN2CCN(c3ccccc3F)CC2)cc1
EC50 [16]: 2.19 µM (active)
EC50 [17]: 7.83 µM (active)
AC50 [4]: 17.2 µM (active)
AC50 [18]: 35.3 µM (active)

COc1ccc(-c2nn3c(-c4ccco4)nnc3s2)cc1OC
AC50 [13]: 10.3 µM (active)
IC50 (H9c2): 11.2 µM (active)

O=C(O)c1cc(-c2ccc(F)cc2)n[nH]1
IC50 [14]: > 100 µM (not active)
IC50 [15]: 4.74 µM (active)

C/C(=N\OCc1nc2ccccc2c(=O)n1/N=C/c1cc(Br)ccc1O)c1ccccc1
IC50 (SUMO E1/E2): 14.7 µM (active)

CC(=NNC(=S)N1CC2CCC(CC2)C1)c1ccncn1
EC50 (Hexokinase HKDC1): 13.3 µM (active)
IC50 (Nonstructural protein 1): 3.98 µM (active)
EC50 (Hexokinase-1): > 80 µM (inactive)
AC50 [19]: 3.03 µM (active)

O=C(O)c1ccc2c(c1)C1C=CCC1C(c1ccccc1)N2 (configuration not stated)
IC50 (SUMO E1/E2): > 100 µM (inactive)
